Assay results taken from patent US20050107430A1, “Antimicrobial and antiviral compounds” (priority 2003, published 2005).
Values after ≈ are worked out from the molar mass of the structure shown. Values joined by “and” are separate entries in the source; they are usually repeats but may differ in a detail not shown here. Equal entries are not always repeated. “Also recorded” adds a separate entry of the source. Marks after values point to notes of the source that are not given here.

Tests used:
E. coli ATCC 25922 = experiment: NCCLS MIC/MBC microdilution, E. coli; format: cell-based; conditions: plate EC
Text: (§1) [BBL Mueller Hinton Broth].

Enterococcus faecium = experiment: NCCLS MIC/MBC microdilution, Enterococcus (vancomycin sensitive); format: cell-based; conditions: for MBC: read at 48 hr
Text: as §1

S. aureus = experiment: NCCLS MIC/MBC microdilution, S. aureus patient isolates; format: cell-based, Staphylococcus aureus; conditions: for MBC: read at 48 hr
Text: as §1

human fibroblasts = experiment: Toxicity study with human fibroblasts; format: cell-based
BDF1′ mice = conditions: 30 mg/kg ip
[1] = system: VRE (Vancomycin resistant Enterococci); experiment: NCCLS MIC/MBC microdilution, VRE; conditions: for MIC, VRE enterococcus (E. faecalis): 24 h and 48 h same results; for MIC: plate D4, VRE patient isolate
Protocol: (§2) Standard NCCLS (e.g., National Committee for Clinical Laboratory Standards) methods for determining MIC (e.g., minimum inhibitory concentration) and MBC (e.g., minimum bactericidal concentration) were used. 96 well micro-well plates were placed in a humid chamber and frozen at −70° C. [BBL Mueller Hinton Broth]. Drugs (e.g., antimicrobial compounds of the present invention) were added to a series of wells through 2 fold serial dilutions. 100 μl of a 2×10^−3 M solution of the respective Tx compounds was added to the first well in a series. 100 μl of the inoculum (e.g., microorganism) was added to the well. […] For example, the concentration in well 8 would be less than the concentration of the same drug in well 7. Inoculum (e.g., microorganism) that was added to the wells was prepared from 24 hour growth of an isolate on 5% sheep blood/Columbia agar plates. 5 to 10 representative colonies were then picked from the plates and added to saline and adjusted to 0.5 McFarland turbidity. Next the sample was diluted 1:100 in saline, such that 100 μl of the diluted sample contained approximately 1×10^5 microbes. 100 μl of the diluted sample was added to each well in a series of drug concentrations. Once the cells were added to the wells, the well plates were incubated at 35° C. without CO2 for 48 hrs and at this time the minimum bactericidal concentration was determined.
(§3) The MIC of Tx-118, Tx-147, and Tx-197 for certain Staphylococcus aureus (MRSA), Pseudomonas aeruginosa, Stenotrophomonas maltophilia, and VRE Enterococcus faecalis was determined using standard NCCLS methods. The first well in each series of decreasing drug concentrations contained 1×10^−4 M of a drug. The drug was diluted by serial two fold dilutions through all 12 wells in a series. There was a final DMSO concentration of 2% in the first well and 1% in the second well, etc. Tests with Tx-118 and Tx-197 were performed in triplicate, and tests with Tx-147 were performed in duplicate.

[2] = system: MRSA (oxacillin/methicillin resistant S. aureus); experiment: NCCLS MIC/MBC microdilution, MRSA; conditions: for MIC, MRSA (methicillin resistant): Table 3, 24 h and 48 h same results
Protocol: as §2, §3

P. aeruginosa = experiment: NCCLS MIC/MBC microdilution, P. aeruginosa; set-up: MIC: key to the marks not given beside the values; conditions: for MIC, P. aeruginosa: Table 3, P. aeroginosa is L13 from Table 2
[3] = system: Stenotrophomonas maltophilia; experiment: NCCLS MIC/MBC microdilution, S. maltophilia; conditions: for MIC, Stenotrophomonas maltophilia: 24 h and 48 h same results
Protocol: as §2, §3

M. avium intracellularie = experiment: MIC, M. avium intracellularie; format: cell-based, Mycobacterium avium intracellulare; conditions: Table 3
[4] = system: Mycobacterium tuberculosis; conditions: Table 3
various microorganisms = experiment: Antimicrobial activity tests, various microorganisms; conditions: for growth in wells (activity): Example 1 microbes
Mycobacterium fortutium = experiment: MIC, Mycobacterium fortutium; format: cell-based; conditions: for MIC, Mycobacterium fortutium: Table 3
[5] = system: Vancomycin resistant S. aureus ATCC700699 and 700788 (VRSA); experiment: NCCLS MIC/MBC microdilution, vancomycin resistant S. aureus; format: cell-based, Staphylococcus aureus; conditions: for MBC: read at 48 hr
Text: as §1

[6] = system: chloroquin (CQ) resistant strain of Plasmodium falciparum (Pf); experiment: In vitro efficacy against chloroquin resistant Plasmodium falciparum; format: cell-based; conditions: for IC50: CQ resistant P. falciparum, in vitro, triplicate
Protocol: Tx-5 and Tx-84 were tested for in vitro efficacy against a chloroquin (CQ) resistant strain of Plasmodium falciparum (Pf). The tests were performed in triplicate at a wide variety of concentrations and evaluated for effect compared with CQ.

[7] = plate E348, Enterococcus faecium patient isolate
[8] = plate E502, Enterococcus faecium ATCC 502806
[9] = plate E523, Enterococcus facium patient isolate
[10] = plate S332, S aureus patient isolate
[11] = plate S520, S aureus patient isolate penicillin resistant
[12] = plate K12, MRSA patient isolate
[13] = plate 37, P. aeruginosa sensitive isolate
[14] = plate ATCC, P. aeruginosa ATCC 27853
[15] = plate L13, P. aeruginosaR (multi-resistant)
[16] = plate C3, S. maltophilia patient isolate
[17] = plate I10, S. maltophilia patient isolate
[18] = plate J11, S. maltophilia patient isolate
[19] = Table 3, 24 h and 48 h same results
[20] = plate 699, VancoR S. aureus ATCC700699
[21] = plate 788, VancoR S. aureus ATCC 700788
[22] = Example 2, first well 1×10^−4 M

## O=C(CCC(=O)N1CCCCC1)Nc1cc2c(c3ccccc13)-c1ccc3ccccc3c1C2 [Tx-38]
E. coli ATCC 25922
  MIC: +++
Enterococcus faecium; [7]
  MIC: +++
Enterococcus faecium; [8]
  MIC: +++
Enterococcus faecium; [9]
  MIC: +++
S. aureus; [10]
  MIC: +++
S. aureus; [11]
  MIC: +++
Human fibroblasts
  Toxicity/human fibroblasts (IC50): 12 ug/ml human fibroblasts
BDF1′ mice
  animal studies (ip), mortality: 30 mg/kg (no mort)
[1]; Table 3
  MIC, VRE enterococcus (E. faecalis): No activity
[1]
  MIC: +++
[2]
  MIC, MRSA (methicillin resistant): No activity
[2]; plate A1, MRSA patient isolate
  MIC: +++^a
[2]; plate B2, MRSA patient isolate
  MIC: +++
[2]; plate E5, MRSA patient isolate
  MIC: +++
[2]; plate F6, MRSA patient isolate
  MIC: +++
[2]; plate G7, MRSA patient isolate
  MIC: +++
[2]; plate H9, MRSA patient isolate
  MIC: +++
[2]; [12]
  MIC: +++
P. aeruginosa
  MIC, P. aeruginosa: No activity
P. aeruginosa; [13]
  MIC: +++
P. aeruginosa; [14]
  MIC: +++
P. aeruginosa; [15]
  MIC: +++
[3]; Table 3
  MIC, Stenotrophomonas maltophilia: No activity
[3]; [16]
  MIC: +++
[3]; [17]
  MIC: +++
[3]; [18]
  MIC: +++

## CN1CCN(C(=O)CCC(=O)Nc2cc3c4ccccc4ccc3c3ccccc23)CC1 [Tx-1, N-(6′-chrysenyl)-4-(4′N methyl-piperazinyl)-butane-1,4-dicarboxiamide]
M. avium intracellularie
  MIC, M. avium intracellularie: 46 µg/mL (≈ 108 µM)
[4]
  MIC, Mycobacterium tuberculosis: 2.9 µg/mL (≈ 6.81 µM)

## CN1CCN(C(=O)CCC(=O)Nc2ccc3c(c2)c(Br)cc2c4ccccc4ccc32)CC1 [Tx-10, N-(12′-bromo, 2′-chrysenyl)-4-(4′N methyl-piperazinyl)-butane-1,4-dicarboxiamide]
Various microorganisms
  growth in wells (activity): +3 growth (e.g., no activity)

## O=C(CCC(=O)N1CCCCC1)Nc1cc2c3ccccc3ccc2c2ccccc12 [Tx-3, N-(6′-chrysenyl)-4-(1′-piperidinyl)-butane-1-4-dicarboxiamide]
M. avium intracellularie
  MIC, M. avium intracellularie: .98 µg/mL (≈ 2.39 µM)
[4]
  MIC, Mycobacterium tuberculosis: .125 µg/mL (≈ 0.304 µM)

## O=C1[C@@H](O)[C@H](c2ccccc2)N1c1cc2c3ccccc3ccc2c2ccccc12 (relative stereo) [Tx-197, Trans-1-N-(6′-chrysenyl)-3-hydroxy-4-phenyl-2-azetidinone]
Mycobacterium fortutium
  MIC, Mycobacterium fortutium: No activity
[1]; Table 3
  MIC, VRE enterococcus (E. faecalis): No activity
[2]
  MIC, MRSA (methicillin resistant): No activity
P. aeruginosa
  MIC, P. aeruginosa: No activity
[3]; Table 3
  MIC, Stenotrophomonas maltophilia: No activity

## CN1CCN(CCCCNc2cc3c4ccccc4c(NCCCCN4CCN(C)CC4)cc3c3ccccc23)CC1.Cl [Tx-147]
E. coli ATCC 25922
  MIC: +++
Enterococcus faecium; [7]
  MIC: 3 µg/mL
  MBC: 6 µg/mL
Enterococcus faecium; [8]
  MIC: 6 µg/mL
  MBC: 12 µg/mL
Enterococcus faecium; [9]
  MIC: 6 µg/mL
  MBC: 12 µg/mL
S. aureus; [10]
  MIC: 12/12 ug/ml
  MBC: 12/12 ug/ml
S. aureus; [11]
  MIC: 12/12 ug/ml
S. aureus; plate S520, S aureus patient isolate
  MBC: 12/12 ug/ml
[5]; [19]
  MIC, VRSA (ATCC 700699): 6 µg/mL
  MIC, VRSA (ATCC 700788): 24 µg/mL
[5]; [20]
  MIC: 6 µg/mL
  MBC: 23 µg/mL
[5]; [21]
  MIC: 24 µg/mL
  MBC: 49 µg/mL
Mycobacterium fortutium; Example 2
  MIC for Mycobacterium fortutium: 0.0039 µg/mL
Mycobacterium fortutium
  MIC, Mycobacterium fortutium: 39 µg/mL
M. avium intracellularie
  MIC, M. avium intracellularie: 12 to 24 µg/mL
[4]
  MIC, Mycobacterium tuberculosis: 3 µg/mL
BDF1′ mice
  animal studies (ip), mortality: 30 mg/kg (10-12% mort)
[1]; [22]
  MIC for VRE: 0.0019 µg/mL
[1]; Table 3
  MIC, VRE enterococcus (E. faecalis): 12 µg/mL
[1]; Table 3, vancomycin, Penicillin & aminoglycoside resistant
  MIC, VRE enterococcus (vancomycin, Penicillin & aminoglycoside rest.): 19 µg/mL
[1]; in words, Example 1
  bactericidal activity for VRE: some bactericidal activity
[1]
  MIC: 12 µg/mL
[2]; Example 2, first well 1×10^−4 M, two fold dilutions
  MIC for Staphylococcus aureus (MRSA): 0.0039 µg/mL
[2]; Example 2, wells 1 and 2, hydrochloride
  concentration that was bactericidal, Staphylococcus aureus (MRSA): 0.0078 µg/mL and 0.0039 µg/mL
[2]
  MIC, MRSA (methicillin resistant): 24 to 49 µg/mL
[2]; in words, Example 1
  bactericidal activity against Staphylococcus aureus (MRSA): bactericidal activity
[2]; plate A1, MRSA patient isolate
  MIC: 24 µg/mL
[2]; plate B2, MRSA patient isolate
  MIC: 48 µg/mL
[2]; plate E5, MRSA patient isolate
  MIC: 24 µg/mL
[2]; plate F6, MRSA patient isolate
  MIC: 24 µg/mL
[2]; plate G7, MRSA patient isolate
  MIC: 24 µg/mL
[2]; plate H9, MRSA patient isolate
  MIC: 48 µg/mL
[2]; [12]
  MIC: 48 µg/mL
P. aeruginosa
  MIC, P. aeruginosa: No activity
P. aeruginosa; [13]
  MIC: +++
P. aeruginosa; [14]
  MIC: +++
P. aeruginosa; [15]
  MIC: +++
[3]; [22]
  MIC for Stenotrophomonas maltophilia: 0.0078 µg/mL
[3]; Table 3
  MIC, Stenotrophomonas maltophilia: 98 to 785 µg/mL
[3]; Table 3, strain resist. various drugs
  MIC, Stenotrophomonas maltophilia (resist. various drugs): 78 µg/mL
[3]; [16]
  MIC: 96 µg/mL
[3]; [17]
  MIC: 784 µg/mL
[3]; [18]
  MIC: 784 µg/mL

## Cl.c1ccc2c(c1)c(NCCCCN1CCCCC1)cc1c3ccccc3c(NCCCCN3CCCCC3)cc21 [Tx-225]
Various microorganisms; in words
  antimicrobial activity: activity similar to Tx-84

## CN1CCN(C(=O)CCC(=O)Nc2cc3c4ccccc4c(Br)cc3c3ccccc23)CC1 [Tx-9, N-(12′-bromo, 6′-chrysenyl)-4-(4′N methyl-piperazinyl)-butane-1,4-dicarboxiamide]
Various microorganisms
  growth in wells (activity): +3 growth (e.g., no activity)

## O=C(CCC(=O)N1CCCCC1)Nc1cc2c3ccccc3c(Br)cc2c2ccccc12 [Tx-11, N-(12′-bromo, 6-chrysenyl)-4-(1′-piperidinyl)-butane-1,4-dicarboxiamide]
Various microorganisms
  growth in wells (activity): +3 growth (e.g., no activity)

## CN1CCN(C(=O)CCC(=O)Nc2ccc3c(ccc4c5ccccc5ccc34)c2)CC1 [Tx-2, N-(2′-chrysenyl)-4-(4′N-methyl-piperazinyl)-butane-1,4-dicarboxiamide]
M. avium intracellularie
  MIC, M. avium intracellularie: 15.6 µg/mL (≈ 36.7 µM)
[4]
  MIC, Mycobacterium tuberculosis: 1 µg/mL (≈ 2.35 µM)

## O=C(CCC(=O)N1CCCCC1)Nc1ccc2c(c1)c(Br)cc1c3ccccc3ccc21 [Tx-12, N-(12′-bromo, 2′-chrysenyl)-4-(1′-piperidinyl)-butane-1,4-dicarboxiamide]
Various microorganisms
  growth in wells (activity): +3 growth (e.g., no activity)

## O=C(CCC(=O)N1CCCCC1)Nc1ccc2c(ccc3c4ccccc4ccc23)c1 [Tx-4, N-(2′-chrysenyl)-4-(1′-piperidinyl)-butane-1,4-dicarboxiamide]
M. avium intracellularie
  MIC, M. avium intracellularie: .82 µg/mL (≈ 2 µM)
[4]
  MIC, Mycobacterium tuberculosis: .1 µg/mL (≈ 0.244 µM)

## CCN(CC)CCCC(C)Nc1ccnc2cc(Cl)ccc12 (stereo not shown) [CQ, chloroquin, reference compound]
[6]
  IC50: 606 nM

## CC(=O)c1cc2c3ccccc3ccc2c2ccc(NC(=O)CCC(=O)N3CCN(C)CC3)cc12 [Tx-118, N-(12′-acetyl, 2′-chrysenyl)-4-(4′N methyl-piperazinyl)-butane-1,4-dicarboxiamide]
Mycobacterium fortutium
  MIC, Mycobacterium fortutium: No activity
[1]; Table 3
  MIC, VRE enterococcus (E. faecalis): No activity
[2]
  MIC, MRSA (methicillin resistant): No activity
P. aeruginosa
  MIC, P. aeruginosa: No activity
[3]; Table 3
  MIC, Stenotrophomonas maltophilia: No activity

## c1ccc2c(c1)c(NCCCCN1CCCCC1)cc1c3ccccc3c(NCCCCN3CCCCC3)cc21 [Tx-84]
[6]
  IC50: 91 nM
[6]; in words
  inhibitory effect against Pf: significant inhibitory effect; also recorded: greater than that of CQ
[1]; Table 3
  MIC, VRE enterococcus (E. faecalis): 4 to 33 µg/mL
[2]
  MIC, MRSA (methicillin resistant): 16 µg/mL (≈ 29.8 µM)
P. aeruginosa
  MIC, P. aeruginosa: No activity
